Test results: patent publication US7855300B2, “Bis(trimethylsilyl)phenyl compound or salt thereof, and use thereof” (Taiho Pharmaceutical Co., Ltd., priority 2007, dated 2010)

Legend:
[1] = Rat toxicity test, oral administration for 4 weeks; format: in vivo, male SD rats; design: key: +: recognized; −: not observed
Method: The compounds of the present invention and the reference compound TAC-101 were orally administered to male SD rats (CLEA Japan, Inc.) for 4 weeks. The dosage of each compound was 6 mg/kg or 24 mg/kg per rat. Differences in toxic symptoms were compared and studied.

[2] = test system: JHH-7 (human hepatocellular carcinoma cell lines); test: Antitumor effect in JHH-7 orthotopic liver transplantation model; format: in vivo, male nude mice (BALB/cA Jcl-nu); details: 16 mg/kg orally once per day for 14 days; tumor weight on 15th day; T/C×100
Method: RARα high expression cells, i.e., human hepatocellular carcinoma cell lines JHH-7, were implanted in the outside left lobe of the liver of male nude mice (BALB/cA Jcl-nu; CLEA Japan, Inc.) under Nembutal anesthesia in an amount of 1×10^6 cells (0.02 ml) per mouse. On the 11th to 14th day after implantation, the mice were divided into groups, each consisting of seven mice. The compounds of the present invention and the reference compound TAC-101 were suspended in 0.5% HPMC and 1.6 mg/ml solution was orally administered to the mice at a liquid dose of 10 ml/kg, namely, at a dose of 16 mg/kg, once per day for 14 days. On the 15th day after the start of administration, the mice were exsanguinated to death under ether anesthesia. Tumors formed in the outside left lobe of the liver were extracted, and the tumor weight was measured to assess the antitumor effect. The antitumor effect was evaluated by calculating the tumor growth rate (%) using the following equation. The antitumor effect of each compound was analyzed by Student's test and statistical significance was determined. Tumor growth rate(%)=T/C×100 T: Average tumor weight in the groups administered with the test compounds C: Average tumor weight in the groups not administered with test compounds

[3] = test system: Human prostatic carcinoma cell lines TSU-Pr1; test: Growth inhibitory and differentiation-inducing effect on prostate cancer cells; format: cell-based; details: 10 μM, IGF-I 10 ng/ml; for Change in cell shape (differentiation-inducing activity): after three days, FIG. 4; for Cytostatic activity (crystal violet staining): 7th day after culturing, FIG. 5
Method: Human prostatic carcinoma cell lines TSU-Pr1 prepared in RPMI1640 culture medium containing 2% fetal bovine serum were plated into a 24-well culture plate at a cell density of 3×10^3 cells per well. The next day, IGF-I (10 ng/ml) was added as a growth factor, and the cells were treated with Compounds 2 and 3 of the present invention and the reference compound TAC-101 each in an amount of 10 μM. Change in cell shape after three days was observed. Moreover, on the 7th day after culturing, the cells were fixed with 25% glutaraldehyde solution. Cytostatic activity was determined by the crystal violet staining method, and the statistical significance of the cytostatic activity was analyzed by Student's test. […] In the Control group that was not treated with medicine, a cobblestone-like shape and vigorous cell division were observed. Such cell shape is characteristic of epithelioid cancer cells.

[4] = test system: non-small cell lung cancer; details: phase I study, Non-Patent Document 5; cited from earlier work
[5] = test system: Human prostatic carcinoma cell lines TSU-Pr1; test: Cancer malignancy-reducing effect (tumorigenicity of pretreated TSU-Pr1 cells implanted in nude mice); format: in vivo, male nude mice (BALB/cA Jcl-nu); details: cells treated 72 hours, six subcutaneous sites, 26th day after implantation
Method: Human prostatic carcinoma cell lines TSU-Pr1 were treated with Compound 3 of the present invention and the reference compound TAC-101 for 72 hours. The cells were subcutaneously implanted into male nude mice (BALB/cA Jcl-nu; CLEA Japan, Inc.) at six sites in total per mouse. On the 26th day after implantation, the rate of subcutaneous tumor formation was observed and the effect of reducing cancer malignancy was evaluated. Statistical significance was analyzed by Wilcoxon test.

| Compound | Alopecia Symptom ([1]; 6 mg/kg) | Endocortical Proliferation ([1]; 6 mg/kg) | Alopecia Symptom ([1]; 24 mg/kg) | Endocortical Proliferation ([1]; 24 mg/kg) | Tumor Growth Rate (%) [2] [%] | Change in cell shape (differentiation-inducing activity) [3] | Clinical response [4] | Side effects [4] | Graft Survival (%) [5] [%] | Tumor Formation [5] | Cytostatic activity (crystal violet staining) [3] | melting point |
| --- | --- | --- | --- | --- | --- | --- | --- | --- | --- | --- | --- | --- |
| C/C(=C\c1ccc(NC(=O)c2cc([Si](C)(C)C)cc([Si](C)(C)C)c2)cc1F)C(=O)O [Compound 14, (E)-3-[4-[[3,5-Bis(trimethylsilyl)benzoyl]amino]-2-fluorophenyl]-2-methylacrylic acid] | − | − | − | − |  |  |  |  |  |  |  |  |
| C/C(=C\C(=O)O)c1ccc(NC(=O)c2cc([Si](C)(C)C)cc([Si](C)(C)C)c2)cc1 [Compound 6, (E)-3-[4-[[3,5-Bis(trimethylsilyl)benzoyl]amino]phenyl]-2-butenoic acid] |  |  |  |  | 31 |  |  |  |  |  |  |  |
| C[Si](C)(C)c1cc(C(=O)Nc2ccc(C(=O)O)cc2)cc([Si](C)(C)C)c1 [TAC-101, 4-[3,5-bis(trimethylsilyl)benzamido]benzoic acid, reference compound] | + | − | + | + | 52 | no significant change was recognized in the shape | complete remission cases were reported | symptoms (skin disorders) similar to hypervitaminosis A were observed | 67 | 4/6 |  |  |
| C/C(=C\C(=O)O)c1ccc(NC(=O)c2cc([Si](C)(C)C)cc([Si](C)(C)C)c2)cc1F [Compound 11, (E)-3-[4-[[3,5-Bis(trimethylsilyl)benzoyl]amino]-2-fluorophenyl]-2-butenoic acid] |  |  |  |  | 36 |  |  |  |  |  |  |  |
| C[Si](C)(C)c1cc(C(=O)Nc2ccc(/C=C/C(=O)O)c(F)c2)cc([Si](C)(C)C)c1 [Compound 2, 4-[[3,5-Bis(trimethylsilyl)benzoyl]amino]-2-fluorocinnamic acid] | − | − | − | − | 21 | dramatic change was recognized in the shape of neuroid cells |  |  |  |  | dramatic cytostatic effect was recognized |  |
| C[Si](C)(C)c1cc(C(=O)Nc2ccc(/C=C/C(=O)O)cn2)cc([Si](C)(C)C)c1 |  |  |  |  |  |  |  |  |  |  |  | 302 °C (dec.) |
| C[Si](C)(C)c1cc(C(=O)Nc2ccc(/C=C/C(=O)O)cc2)cc([Si](C)(C)C)c1 [Compound 3, 4-[[3,5-Bis(trimethylsilyl)benzoyl]amino]cinnamic acid] | − | − | − | − | 25 | dramatic change was recognized in the shape of neuroid cells |  |  | 17 | 1/6 | dramatic cytostatic effect was recognized |  |
